Data on one sequence can be found in publication PMC4703387, “Identification of the Calmodulin-Binding Domains of Fas Death Receptor” (PLoS ONE, 2016).

Where no end group is shown, it is not given here.

For series [1], the target named is T1, Ca^2+/CaM (Homo sapiens, UniProt P0DP23).
T1 construct: made in house
The experiment in a line: Circular dichroism (CD) spectroscopy. Format: physicochemical. The note with it: 25°C, 10 mM HEPES (pH 7), 50 mM KCl, 2.5 mM CaCl2. How it is done: CD spectra were acquired on a Jasco J815 spectropolarimeter at 25°C from 260 to 185 nm. Scanning rate was set to 50 nm/min. Loading concentrations were ~16–20 μM for free peptides, 18 μM for free Ca^2+/CaM and 10 μM for the complexes in a buffer containing 10 mM HEPES (pH 7), 50 mM KCl, and 2.5 mM CaCl2. The background signal from the buffer solution was subtracted from each spectrum. Ca^2+/CaM complexes with peptides were run on gel filtration column (as described above) to ensure high purity and homogeneity prior to collection of the CD spectra.

Series [2] concerns the target T1, Ca^2+/CaM. In words: NMR titration (2D 1H-15N HSQC) of 15N-labeled Ca^2+/CaM with FasDD peptides. In kind it is binding. The following applies: 1H-15N HSQC, 15N-Ca^2+/CaM 100–150 μM, 35°C, pH 7.0. How it is done: (§1) NMR data were collected at 35°C on a Bruker Avance II (700 MHz ^1H) spectrometer equipped with a cryogenic triple-resonance probe, processed with NMRPIPE [35] and analyzed with NMRVIEW [36] or CCPN Analysis. […] For signal assignments of the complexes, ^13C-, ^15N-, or ^13C-/^15N-labeled Ca^2+/CaM at ~400–500 μM was mixed with unlabeled Fas-Pep1 (in 100% DMSO-d6) or Fas-Pep2 at 1.5:1 peptide:Ca^2+/CaM. […] The backbone atom resonances of Ca^2+/CaM complexes with Fas-Pep1 and Fas-Pep2 were assigned using HNCA, HN(CO)CA, HNCACB, HNCO, HN(CO)CACB and ^15N-edited NOESY-HSQC and TOCSY-HSQC experiments. These experiments have been also collected on ^15N-, or ^13C-/^15N-labeled Fas-Pep2 in complex with unlabeled Ca^2+/CaM to confirm the α-helical character of Fas-Pep2 when bound to Ca^2+/CaM. The chemical shifts of Ca^2+/CaM-bound Fas-Pep2 were used to predict its order parameters and secondary structure content in TALOS+.[38] Combined ^1H-^15N chemical shift changes were calculated as ΔδHN = [(ΔδH)^2+(ΔδN/5)^2]^1/2, where ΔδH and ΔδN are the ^1H and ^15N chemical shift changes, respectively. Kd values were calculated by non-linear least-square fitting algorithm in Origin software (OriginLab, Northampton, MA) using the equation: ΔδHN=ΔδHN^max((Kd+L0+P0)−((Kd+L0+P0)^2−4*P0*L0)^0.5)/(2*P0) where ΔδHN^max is the chemical shift change between complex and free protein, L0 total concentration of ligand, and P0 total concentration of protein.
To gain insights into the molecular elements of Ca^2+/CaM–FasDD interaction and to identify the interaction interface, we have utilized NMR chemical shift perturbation (CSP) as detected in ^1H-^15N heteronuclear single quantum coherence (HSQC) spectra. These experiments not only allow for identification of residues involved in binding but can also provide information on the induced conformational changes within proteins. 2D ^1H-^15N HSQC data obtained for a uniformly ^15N-labeled Ca^2+/CaM upon titration with unlabeled Fas-Pep1 are shown in Fig 5. Addition of substoichiometric amounts of Fas-Pep1 (0.5:1 peptide:Ca^2+/CaM) led to a decrease in intensity for a significant number of ^1H-^15N resonances accompanied by appearance of several new signals, consistent with a slow exchange on the NMR scale between the free and bound forms of Ca^2+/CaM. A steady decrease in intensity for the original ^1H-^15N signals and increase in intensity of the new signals was clearly observed with further addition of Fas-Pep1. Spectral changes ceased upon completion of peptide titration at 1.5:1 Fas-Pep1:Ca^2+/CaM ratio when only the new set of signals was present (Fig 5). […]
Only residues 214–227 have been detected in the x-ray structure of Ca^2+/CaM bound to FasDD(214–238); no electron density has been detected for residues 228–238.[40] […]

Series [3] deals with T1, Ca^2+/CaM. The experiment in a line: NMR (HSQC, 3D 15N-edited HSQC-NOESY, TALOS+) of 15N-/13C-labeled Fas-Pep2. Format: physicochemical. How it is done: as §1
Far-UV CD spectra of Ca^2+/CaM, Fas-Pep1, Fas-Pep2 and their complexes have been obtained to determine whether formation of the complexes induce any major changes in the secondary structures of the peptides and/or Ca^2+/CaM protein. […] The CD spectra of the complexes are similar to those of Ca^2+/CaM with features distinctive of an α-helical type. Relatively minor changes are observed in the CD signal of Ca^2+/CaM upon binding to FasDD peptides. […] Induction of the α-helical character of Fas-Pep2 upon binding to Ca^2+/CaM has been confirmed by NMR spectroscopy. […]

Turning to “VQDTAEQKVQLLRNWHQLHGKKEAYDTLIKDLKKANLC [Fas-Pep2]”, at Ca^2+/CaM [1] (complex 10 μM), the “change in CD signal at 208 and 222 nm of Ca^2+/CaM on peptide binding” value is “An increase in the intensity of the CD signal at 208 and 222 nm”. On Ca^2+/CaM [1] (far-UV CD, ~16–20 μM peptide, 18 μM Ca^2+/CaM), the “secondary structure of free peptide/protein” value is “random coil”. Besides, the “NMR exchange regime with Ca^2+/CaM” value at Ca^2+/CaM [2] is “slow exchange”. Besides, the “conformation when bound to Ca^2+/CaM (NOESY)” value on Ca^2+/CaM [3] (3D 15N-edited HSQC-NOESY) is “adopts an α-helical conformation upon binding to CaM”. Further, the “conformation of free peptide (NMR)” value on Ca^2+/CaM [3] (15N-Fas-Pep2, 1H-15N HSQC, 35°C, pH 7.0) is “lack of ordered structure”. For the same sequence, the “conformation when bound to Ca^2+/CaM (chemical shift index, TALOS+)” value at Ca^2+/CaM [3] (prediction from measured chemical shifts) is on record as “adopts an α-helical conformation upon binding to Ca^2+/CaM”.
